Measured values as given in publication PMC10818931, “In Vitro Evaluation of Drug–Drug Interaction Potential of Epetraborole, a Novel Bacterial Leucyl-tRNA Synthetase Inhibitor” (Pharmaceuticals, 2024).

How the values were obtained:
BCRP = molecular target: T1, BCRP (Homo sapiens, UniProt Q9UNQ0); experiment: Substrate potential for BCRP, bidirectional permeability in BCRP-MDCK; type: in vitro ADME; settings: human; BCRP-MDCK; read-out: Efflux ratio of control compound
T1 construct: host or cells: MDCK (BCRP-MDCK)
T1 sequence (Q9UNQ0 1-655): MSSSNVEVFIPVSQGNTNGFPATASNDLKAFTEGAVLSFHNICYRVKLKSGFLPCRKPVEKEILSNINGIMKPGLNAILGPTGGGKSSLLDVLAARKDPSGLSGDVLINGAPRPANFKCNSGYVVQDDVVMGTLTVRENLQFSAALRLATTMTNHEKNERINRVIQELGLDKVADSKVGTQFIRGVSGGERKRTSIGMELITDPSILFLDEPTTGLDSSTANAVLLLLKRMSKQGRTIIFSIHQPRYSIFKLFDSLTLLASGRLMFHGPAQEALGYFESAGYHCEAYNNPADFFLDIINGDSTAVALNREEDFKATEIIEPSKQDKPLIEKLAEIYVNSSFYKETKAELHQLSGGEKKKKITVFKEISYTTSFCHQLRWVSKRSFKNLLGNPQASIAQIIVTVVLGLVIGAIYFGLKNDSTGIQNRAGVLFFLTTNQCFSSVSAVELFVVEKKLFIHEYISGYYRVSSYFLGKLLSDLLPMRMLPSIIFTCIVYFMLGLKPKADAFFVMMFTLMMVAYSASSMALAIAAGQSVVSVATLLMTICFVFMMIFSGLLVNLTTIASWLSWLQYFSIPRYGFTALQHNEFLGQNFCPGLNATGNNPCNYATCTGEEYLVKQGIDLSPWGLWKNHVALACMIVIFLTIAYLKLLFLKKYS

CYP1A2 = experiment: CYP mRNA induction in plated human hepatocytes (qPCR); settings: CYP1A2, flumazenil 25 µM
Protocol: (§1) The induction potential of EBO and M3 on CYP1A2, CYP2B6, and 3A4 was evaluated by incubating the test articles with plated human hepatocytes from 3 individual donors (GKJ, ZEY, WKF) in triplicate according to WuXi AppTec (Cranbury, NJ, USA) SOP.
(§2) At the end of incubation, the RNA of human hepatocytes was isolated and the mRNA expression levels of CYP 1A2, 2B6, and 3A4 were evaluated by using real-time polymerase chain reaction (qPCR) after being reverse-transcribed (RT) to cDNA following manufacturer’s instruction (thermos Fisher Scientific (Waltham, MA, USA). On the last dosing day with EBO or M3, incubation samples were extracted in triplicate by the addition of ice-cold quench solutions at 0, 0.5, 1, 2, 4, 6, and 24 h after dosing and the extracted samples were analyzed using LC-MS/MS to determine the EBO or M3 concentration in each sample.

CYP2B6 = experiment: as above; settings: CYP2B6; for mRNA Induction Fold in Controls NC: flumazenil 25 µM; for mRNA Induction Fold in Controls PC: phenobarbital 750 µM
Protocol: as §1, §2

CYP3A4 = experiment: as above; settings: CYP3A4, flumazenil 25 µM
Protocol: as §1, §2

in vitro = settings: human, Caco-2
Protocol: ^14C-EBO permeability in Caco-2 Cells (MDR1/Protein Glycoprotein or P-gp) was determined using methodologies described previously. The apparent permeability of ^14C-EBO was determined in both the apical to basolateral and the basolateral to apical directions, in triplicate, at final concentrations of 1, 10, and 100 μM. Cell monolayers were incubated with ^14C-EBO at 37 °C for 1, 2, 3, and 4 h. The transepithelial electrical resistance (TEER) values of the monolayers prior to and following each experiment were measured to confirm the integrity of the Caco-2 cell monolayers. The apparent permeability of ^14C-EBO (at a final concentration of 10 μM) was determined in both the apical to basolateral and basolateral to apical directions under the same conditions as previously described in the presence of P-gp inhibitors cyclosporine A (10 μM) and verapamil (100 μM) in the donor compartment.

[1] = donor one, control of EBO experiment
[2] = donor one, control of M3 experiment
[3] = donor three, control of EBO experiment
[4] = donor three, control of M3 experiment
[5] = donor two, control of EBO experiment
[6] = donor two, control of M3 experiment

**Q.** With Nc1nc(Cl)nc2c1ncn2[C@H]1C[C@H](O)[C@@H](CO)O1 [cladribine, reference compound] as the compound, how does the efflux ratio (BCRP) read?
**A.** The efflux ratio was 288.

**Q.** Which “mRNA Induction Fold in Controls NC” value (CYP1A2; [1]) does the source give for CCOC(=O)c1ncn2c1CN(C)C(=O)c1cc(F)ccc1-2 [flumazenil] here?
**A.** The value was 0.71 Fold.

**Q.** And the “mRNA Induction Fold in Controls NC” value (CYP1A2; [2])?
**A.** Its value is 0.94 Fold.

**Q.** What about the “mRNA Induction Fold in Controls NC” value (CYP1A2; [3]) of the same compound?
**A.** The value was 0.75 Fold.

**Q.** What about the “mRNA Induction Fold in Controls NC” value (CYP1A2; [4]) of the same compound?
**A.** Its value is 0.74 Fold.

**Q.** And the “mRNA Induction Fold in Controls NC” value (CYP1A2; [5])?
**A.** Its value is 0.94 Fold.

**Q.** And the “mRNA Induction Fold in Controls NC” value (CYP1A2; [6])?
**A.** The value was 0.82 Fold.

**Q.** And the “mRNA Induction Fold in Controls NC” value (CYP2B6; [1])?
**A.** The value was 0.84 Fold.

**Q.** And the “mRNA Induction Fold in Controls NC” value (CYP2B6; [2])?
**A.** The value was 0.91 Fold.

**Q.** What about the “mRNA Induction Fold in Controls NC” value (CYP2B6; [3]) of the same compound?
**A.** The value was 1.00 Fold.

**Q.** What about the “mRNA Induction Fold in Controls NC” value (CYP2B6; [4]) of the same compound?
**A.** Its value is 0.87 Fold.

**Q.** What about the “mRNA Induction Fold in Controls NC” value (CYP2B6; [5]) of the same compound?
**A.** Its value is 1.09 Fold.

**Q.** And the “mRNA Induction Fold in Controls NC” value (CYP2B6; [6])?
**A.** The value was 0.87 Fold.

**Q.** What about the “mRNA Induction Fold in Controls NC” value (CYP3A4; [1]) of the same compound?
**A.** The value was 0.89 Fold.

**Q.** What about the “mRNA Induction Fold in Controls NC” value (CYP3A4; [2]) of the same compound?
**A.** The value was 1.06 Fold.

**Q.** And the “mRNA Induction Fold in Controls NC” value (CYP3A4; [3])?
**A.** Its value is 0.98 Fold.

**Q.** What about the “mRNA Induction Fold in Controls NC” value (CYP3A4; [4]) of the same compound?
**A.** Its value is 0.87 Fold.

**Q.** And the “mRNA Induction Fold in Controls NC” value (CYP3A4; [5])?
**A.** The value was 0.96 Fold.

**Q.** What about the “mRNA Induction Fold in Controls NC” value (CYP3A4; [6]) of the same compound?
**A.** Its value is 0.66 Fold.

**Q.** Which Papp (in vitro) does the source give for OC[C@@H](O)[C@@H](O)[C@H](O)[C@H](O)CO [mannitol, reference compound] here?
**A.** The Papp was 0.19 to 0.69 ×10⁻⁶ cm/s.

**Q.** What does the source list for CCC1(c2ccccc2)C(=O)NC(=O)NC1=O [phenobarbital]?
**A.** mRNA Induction Fold in Controls PC (CYP2B6; [1]): 7.45 Fold; mRNA Induction Fold in Controls PC (CYP2B6; [2]): 9.17 Fold; mRNA Induction Fold in Controls PC (CYP2B6; [3]): 6.64 Fold; mRNA Induction Fold in Controls PC (CYP2B6; [4]): 6.86 Fold; mRNA Induction Fold in Controls PC (CYP2B6; [5]): 6.88 Fold; mRNA Induction Fold in Controls PC (CYP2B6; [6]): 6.29 Fold
